From patent US20240158392A1 (Janssen Biotech, Inc., priority 2021, published 2024)

Key:
SIK2 [1] = target: T1, SIK2 (Homo sapiens, UniProt Q9H0K1); assay: SIK2 Enzymatic Assay Version 1 (ADP Glo); type: biochemical; conditions: enzyme 0.6 nM, 160 μM ATP and 140 μM HDAC5tide (each 2× final concentration); 30 minutes pre-incubation, 4 hours; ADPGlo luminescence; read-out: SIK2 ADP Glo IC50 (μM) (Test Example 1)
How it was run: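 Room-temperature ADP-Glo luminescence assay; SIK2 added at 0.6 nM (2× final) and preincubated with compound for 30 min. Reaction stopped with ADP-Glo Reagent for 40 min, then detection reagent for at least 30 min; no-peptide (ATP-only) wells served as negative control.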

SIK2 [2] = target: T1, SIK2; assay: SIK2 Enzymatic Assay High Version 2 (High ATP); type: biochemical
How it was run: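 At room temperature, enzyme (6 nM, 2× final) was preincubated with compound for 30 min, then 6 mM ATP and 400 μM HDAC5tide (both 2× final) were added for 2 h. ADP formed was measured by ADP-Glo Max (2 h reagent, 1 h detection) using luminescence.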

T1 sequence (Q9H0K1 whole entry, species assumed): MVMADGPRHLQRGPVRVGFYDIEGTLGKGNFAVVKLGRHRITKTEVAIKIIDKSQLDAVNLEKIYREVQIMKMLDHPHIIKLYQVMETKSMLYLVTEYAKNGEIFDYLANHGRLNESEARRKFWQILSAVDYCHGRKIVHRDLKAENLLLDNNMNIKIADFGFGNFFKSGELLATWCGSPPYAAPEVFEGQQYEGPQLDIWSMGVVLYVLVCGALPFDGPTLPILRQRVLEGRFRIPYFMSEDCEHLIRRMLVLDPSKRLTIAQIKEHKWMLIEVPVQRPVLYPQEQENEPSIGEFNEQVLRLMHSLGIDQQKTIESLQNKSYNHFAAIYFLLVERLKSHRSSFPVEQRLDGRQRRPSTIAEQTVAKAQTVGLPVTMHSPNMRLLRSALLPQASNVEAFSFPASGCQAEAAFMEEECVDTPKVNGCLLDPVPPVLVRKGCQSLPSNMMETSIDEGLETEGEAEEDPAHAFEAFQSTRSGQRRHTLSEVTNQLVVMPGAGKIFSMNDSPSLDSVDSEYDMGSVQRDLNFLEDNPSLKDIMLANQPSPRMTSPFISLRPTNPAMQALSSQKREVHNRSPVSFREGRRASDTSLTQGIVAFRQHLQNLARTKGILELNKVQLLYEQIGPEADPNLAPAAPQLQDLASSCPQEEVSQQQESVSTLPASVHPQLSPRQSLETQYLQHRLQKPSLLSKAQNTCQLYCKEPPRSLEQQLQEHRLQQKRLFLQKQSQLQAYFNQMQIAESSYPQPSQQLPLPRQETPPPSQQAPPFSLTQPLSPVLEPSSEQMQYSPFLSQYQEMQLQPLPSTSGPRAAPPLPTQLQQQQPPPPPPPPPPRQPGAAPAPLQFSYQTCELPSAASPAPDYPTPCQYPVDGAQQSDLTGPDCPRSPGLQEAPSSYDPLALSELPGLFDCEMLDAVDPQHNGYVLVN

IC50 (SIK2 [1]) [µM]	IC50 (SIK2 [2]) [nM]	SMILES
0.000605	12.9	N#Cc1cc(-c2ccn3nc(NC(=O)C4CC4)cc3c2)c(OCC2CCC(O)(C(F)(F)F)CC2)cn1 (racemic) [Example 178, rac-N-[5-[2-cyano-5-[[4-hydroxy-4-(trifluoromethyl)cyclohexyl]methoxy]-4-pyridyl]pyrazolo[1,5-a]pyridin-2-yl]cyclopropanecarboxamide]
0.00328	62.2	Cc1cc(-c2ccn3nc(Nc4cc(C)nc(C)n4)cc3c2)c(OC[C@H]2CC[C@@H](O)CO2)cn1 (single isomer, unassigned) [Example 582, (3*R, 6*R)-6-[[4-[2-[(2,6-dimethylpyrimidin-4-yl)amino]pyrazolo[1,5-a]pyridin-5-yl]-6-methyl-3-pyridyl]oxymethyl]tetrahydropyran-3-ol]
0.000381	7.74	N#Cc1cc(-c2ccn3nc(NC(=O)C4CC4)cc3c2)c(O[C@H]2CCN(CC(F)(F)F)C2)cn1 [Example 5, N-[5-[2-cyano-5-[(3S)-1-(2,2,2-trifluoroethyl)pyrrolidin-3-yl]oxy-4-pyridyl]pyrazolo[1,5-a]pyridin-2-yl]cyclopropanecarboxamide]
0.00152	36	CN1CCO[C@H](COc2cnc(C#N)cc2-c2ccn3nc(NC(=O)C4CC4)cc3c2)C1 [Example 39, N-[5-[2-cyano-5-[[(2S)-4-methylmorpholin-2-yl]methoxy]-4-pyridyl]pyrazolo[1,5-a]pyridin-2-yl]cyclopropanecarboxamide]
0.061	806	CCOc1cnc(C)cc1-c1ccn2nc(NC(=O)C3CC3)cc2c1 [Example 752, N-[5-(5-ethoxy-2-methyl-4-pyridyl)pyrazolo[1,5-a]pyridin-2-yl]cyclopropanecarboxamide]
0.00149	11.2	N#Cc1cc(-c2ccn3nc(NC(=O)C4CC4)cc3c2)c(O[C@H]2CCNC2)cn1 [Example 6, (S)—N-(5-(2-cyano-5-(pyrrolidin-3-yloxy)pyridin-4-yl)pyrazolo[1,5-a]pyridin-2-yl)cyclopropanecarboxamide]
0.00192	29.9	N#Cc1cc(-c2ccn3nc(NC(=O)C4CC4)cc3c2)c(OC[C@H]2C[C@@H](NC3CC3)C2)cn1 [Example 597, N-[5-[2-cyano-5-[[3-(cyclopropylamino)cyclobutyl]methoxy]-4-pyridyl]pyrazolo[1,5-a]pyridin-2-yl]cyclopropanecarboxamide]

SMILES	IC50 (SIK2 [1]) [µM]	IC50 (SIK2 [2]) [nM]
Cc1cc(-c2ccn3nc(NC(=O)C4CC4)cc3c2)c(O[C@@H]2CC[C@H](N)C2)cn1 [Example 152, N-[5-[5-[(1R,3S)-3-aminocyclopentoxy]-2-methyl-4-pyridyl]pyrazolo[1,5-a]pyridin-2-yl]cyclopropanecarboxamide]	0.00378	70.1
